Entries after “also recorded” stand apart in the source; their conditions may differ.
Experiments:
[1] = tested on: Vibrio fischeri quorum sensing system; test: Antagonistic activity: decrease of bioluminescence in competition with OHHL (200 nM) in recombinant E. coli NM522 with sensor plasmid pSB401; assay type: cell-based; conditions: for IC50: increasing concentration of compound in competition with 200 nM OHHL; for residual bioluminescence: 100 µM of analogue in competition with 200 nM OHHL
Protocol: (§1) The recombinant Escherichia coli strain NM522 with the sensor plasmid pSB401 was used to measure the induction of luminescence. Bacterial cultures were grown in Luria broth (50 mL) at 30 °C. After 18 h, this bacterial culture was diluted 10 times to be used in the assay using 96-well plates (100 µL per well). For agonistic activity, compounds were tested at increasing concentrations in DMSO (max 2% in a total volume of 200 µL of LB). For antagonistic activity, compounds were tested in competition with OHHL (200 nM) at increasing concentrations in DMSO (max 2% in a total volume of 200 µL). This 200 nM concentration of OHHL is fully pertinent since concentrations as low as 10 or 50 nM are already valid protocols as reported in meaningful studies. Bioluminescence was measured with a Tecan spark luminometer (Männedorf, Switzerland).
(§2) All compounds were evaluated for the ability to induce bioluminescence (agonistic activity) or to decrease bioluminescence in the presence of 3-oxo-hexanoyl-L-homoserine lactone (OHHL) at 200 nM (antagonistic activity). Hydrazide AHL analogues were deprived of any activity.
A first assessment of the antagonistic activity was performed by measuring residual bioluminescence at 100 µM concentration of analogues in competition with 200 nM of OHHL. […] A residual bioluminescence of 42% for the L-butyl carbamate derivative 2 vs. 89% for the D-isomer 3 was measured showing the influence of the configuration on luminescence and therefore on QS inhibition.
To determine IC50 values, the decrease of bioluminescence of was measured using increasing concentration of each compound in presence of 200 nM of OHHL (Table 1). Values ranging from 22 to 94 µM, in the range of other reported of AHL-structurally related QS inhibitors, were measured for compounds 2, 4–7, and 9–11. Differences in the calculated LogP values are consistent with inhibitory activity for most compounds except 4-nitrobenzyl analogues. This is the case for all thiocarbamates vs. carbamates, and also when comparing the butyl (2) and hexyl (4) derivatives, or the benzyl and 4-bromobenzyl substituents.

[2] = tested on: Vibrio fischeri quorum sensing system; test: Agonistic activity: induction of bioluminescence in recombinant E. coli NM522 with sensor plasmid pSB401; assay type: cell-based
Protocol: as §1, §2

SMILES | IC50 [1] | residual bioluminescence [1] | also measured
O=C(N[C@H]1CCOC1=O)SCc1ccccc1 [Compound 10, N-(benzylthiocarbonyl)-L-homoserine lactone] | 64 µM | – | –
CCCCOC(=O)N[C@H]1CCOC1=O [Compound 2, N-(butoxycarbonyl)-L-homoserine lactone] | 94 µM | 42% | –
CCOC(=O)N[C@H]1CCOC1=O [Compound 1, N-(ethoxycarbonyl)-L-homoserine lactone] | – | – | bioluminescence induced, relative to that obtained with the natural ligand OHHL at 200 nM ([2]; compound at 200 µM, OHHL reference at 200 nM): 18%; agonistic activity ([2]; induction of bioluminescence, increasing concentrations): weak agonistic activity; also recorded: very weak agonistic activity
CCCCSC(=O)N[C@H]1CCOC1=O [Compound 9, N-(butylthiocarbonyl)-L-homoserine lactone] | 45 µM | – | –
O=C(N[C@H]1CCOC1=O)OCc1ccccc1 [Compound 5, N-(benzyloxycarbonyl)-L-homoserine lactone] | 86 µM | – | –
CCCCOC(=O)N[C@@H]1CCOC1=O [Compound 3, N-(butoxycarbonyl)-D-homoserine lactone] | – | 89% | –
O=C(N[C@H]1CCOC1=O)OCc1ccc(Br)cc1 [Compound 6, N-(4-bromobenzyloxycarbonyl)-L-homoserine lactone] | 64 µM | – | –
CCCCCCOC(=O)N[C@H]1CCOC1=O [Compound 4, N-(hexyloxycarbonyl)-L-homoserine lactone] | 73 µM | 22% | –
